The test system of experiment [1] is GPCR activated by BN-type neuropeptide. Conditions: Branchiostoma japonicum; cited from earlier work. An excerpt:
Insights into the evolutionary history of BN-type neuropeptide signaling have been obtained from phylogenetic analysis of genome sequence data. A gene encoding a BN-type neuropeptide precursor was identified in the invertebrate chordate Branchiostoma floridae [subphylum Cephalochordata; ([4])] and, subsequently, experimental characterization of BN-type neuropeptide signaling in the cephalochordate Branchiostoma japonicum has been reported ([24]). A GPCR that is activated by the BN-type neuropeptide DKGQEHWQYGHWY-NH2 was identified. Furthermore, expression of the gene encoding this neuropeptide ...

A further experiment relates to BB2 receptor (GRP-R). Further details: method as in PMID 1707129, PMID 1848080, PMID 1671171, PMID 1655761, PMID 31593737. Conditions: mammals; cited from earlier work.
In another experiment the test system is fundic muscle of mice. As to conditions: cited from earlier work. An excerpt:
(§1) The functional characterization of ArBN in A. rubens provides insights into the comparative physiology of BN-type neuropeptide signaling.

The next experiment concerns tube foot preparations. Conditions: cited from earlier work. On the procedure:
Based on the expression of ArBNP in the cardiac stomach and tube feet of A. rubens, experiments were performed to investigate effects of ArBN on in vitro preparations of these organs. […] In experiments where cardiac stomach preparations were washed in between application of ArBN at different ...

In experiment [2] the test system is A. rubens feeding behavior. As to conditions: vs water; cited from earlier work. On the procedure: Based on the effects of NGFFYamide, ArSK/CCK1, and ArSK/CCK2 in triggering a process associated with termination of feeding behavior—cardiac stomach retraction—the effects of neuropeptides on feeding behavior of starfish have also been investigated. In these experiments starfish were starved and then presented with prey (a mussel) in a testing tank and the time taken to touch, enclose, and then consume the mussel was measured.

Experiment [3] concerns everted cardiac stomach of A. rubens. As to conditions: cited from earlier work. The source says:
(§2) Starfish (A. rubens) feed by everting their cardiac stomach out of the mouth over the digestible soft tissues of prey (e.g., mussels) and when feeding is completed, the stomach is retracted back into the central disk region of the body ([45]). […] Discovery of neuropeptides that exert excitatory or inhibitory effects on the cardiac stomach in vitro is of interest with respect to the unusual feeding behavior of A. rubens and other starfish. When starfish feed on bivalve mollusks such as mussels, they use the collective pulling power of tube feet loca ...

The subject of experiment [4] is cardiac stomach preparations. As to conditions: cited from earlier work. On the procedure: as §2, with “Based on the expression of ArBNP in the cardiac stomach and tube feet of A. rubens, experiments were performed to investigate effects of ArBN on in vitro preparations of these organs. […] In experiments where cardiac stomach preparations were washed in between application of ArBN at different ... || Starfish” for “Starfish”

In experiment [5] the test system is everted cardiac stomach of A. rubens. As to the kind of experiment: In vivo retraction of everted cardiac stomach. Conditions: 10 µL of 10^-4 M injected, words. Also noted: species or system Asterias rubens. An excerpt:
Therefore, we performed experiments to investigate whether ArBN causes cardiac stomach retraction in A. rubens when injected in vivo. A description of the methods employed for investigation of in vivo effects of ArBN on the everted cardiac stomach of A. rubens is included in SI Appendix, SI Methods. […]
foot preparations. Having determined that ArBN had effects on preparations when tested at a high concentration (10^-6 M), then dose-response data for this peptide were obtained with final concentrations in the organ bath ranging from 10^-10 M to 10^-6 M. Two types of tests were performed when obtaining dose-response data for ArBN:
Test type 1: Here the preparation was washed thoroughly with seawater after adding ArBN to the organ at different concentrations. […]
The contraction effect of NGFFYamide (10^-7 M) or ACh (10^-5 M) was defined as 100% and the effects of ArBN were calculated as a percentage of the effect of NGFFYamide or ACh. […]
Analysis of the in vivo effects of ArBN on the everted cardiac stomach of A. rubens The physiological status of the starfish (~8 cm in diameter) tested was normalized by a 7-day starvation period. […] Then, the starfish was firstly injected with 10 µl of distilled water (negative control) and video recorded using a camera (Canon EOS 700D) for 7 min. Then, the same starfish was injected with NGFFYamide (positive control) or ArBN and video recorded for 7 min. […]

Experiment [6] relates to intestinal smooth muscle from caimans. As to conditions: cited from earlier work.
Source text: as §1

The next experiment relates to BB1 receptor (NMB-R). Conditions: mammals; cited from earlier work. An excerpt: BN-type neuropeptides exert their effects by binding to GPCRs. In mammals, NMB and GRP act as high affinity ligands for the BB1 receptor (NMB-R) and the BB2 receptor (GRP-R), respectively, and orthologs of these receptors have been identified in nonmammalian vertebrates ([20]–[24]). […] BN-type neuropeptides are involved in regulation of a variety of physiological and behavioral processes in mammals/vertebrates, including t ...

This is an account of results in publication PMC12002301, “Discovery and functional characterization of a bombesin-type neuropeptide signaling system in an invertebrate” (Proceedings of the National Academy of Sciences of the …, 2025).

Entries after “also recorded” stand apart in the source; their conditions may differ. Ends that are not written are not given here.

For the compound “DKGQEHWQYGHWY-NH2 [BN-type neuropeptide of the cephalochordate Branchiostoma japonicum]”, the GPCR activation result in experiment [1] is on record as “activated”.
Regarding “GRP: BN-like peptide identified in the porcine gut (APVSVGGGTVLAKMYPRGNHWAVGHLM; ends and bridges not checked; UniProt P63153 24-50, looked up)”, the “affinity for BB2 receptor (GRP-R)” value with BB2 receptor (GRP-R) is “high affinity”. In addition, in the experiment with fundic muscle of mice, the “contraction of fundic muscle” value is reported as “dose-dependent contraction”.
As to `CC(=O)OCC[N+](C)(C)C` [ACh, acetylcholine], the “effect on tube foot preparations in vitro” value in the experiment on tube foot preparations is “causes contraction of tube foot preparations in vitro”.
On to NGFFYamide [positive control], for which, in experiment [2], the “time taken to enclose a mussel” value is “increase in the time taken for starfish to touch and enclose a mussel”; the “time taken to touch a mussel” value is reported as “increase in the time taken for starfish to touch”. In experiment [3], the “cardiac stomach retraction in vivo” value was “retraction in vivo; also recorded: trigger retraction of the everted cardiac stomach”. For the same compound, in experiment [4], the “effect on cardiac stomach preparations in vitro” value is on record as “causes contraction of cardiac stomach preparations in vitro; also recorded: triggers cardiac stomach contraction in vitro; also recorded: cause cardiac stomach contraction in vitro”. Also, the cardiac stomach retraction entry in experiment [5] is “caused cardiac stomach retraction”.
In the case of “pQQRLGNQWAVGHLM-NH2 [BN, peptide first isolated from the skin of the frog Bombina bombina]”, the “effect on intestinal smooth muscle” value in experiment [6] is recorded as “excitatory effect”.
As for “NMB: ranatensin-like peptide identified in the porcine spinal cord”, in the experiment on BB1 receptor (NMB-R), the “affinity for BB1 receptor (NMB-R)” value was “high affinity”. The “contraction of fundic muscle” value in the experiment on fundic muscle of mice was “dose-dependent contraction”.
